# Columns and labels:
# [1] = molecular target: T1, Muscarinic acetylcholine receptor M1 (Homo sapiens, UniProt P11229); test: Agonist activity at human muscarinic M1 receptor; assay type: functional
# T1 sequence (P11229 whole entry): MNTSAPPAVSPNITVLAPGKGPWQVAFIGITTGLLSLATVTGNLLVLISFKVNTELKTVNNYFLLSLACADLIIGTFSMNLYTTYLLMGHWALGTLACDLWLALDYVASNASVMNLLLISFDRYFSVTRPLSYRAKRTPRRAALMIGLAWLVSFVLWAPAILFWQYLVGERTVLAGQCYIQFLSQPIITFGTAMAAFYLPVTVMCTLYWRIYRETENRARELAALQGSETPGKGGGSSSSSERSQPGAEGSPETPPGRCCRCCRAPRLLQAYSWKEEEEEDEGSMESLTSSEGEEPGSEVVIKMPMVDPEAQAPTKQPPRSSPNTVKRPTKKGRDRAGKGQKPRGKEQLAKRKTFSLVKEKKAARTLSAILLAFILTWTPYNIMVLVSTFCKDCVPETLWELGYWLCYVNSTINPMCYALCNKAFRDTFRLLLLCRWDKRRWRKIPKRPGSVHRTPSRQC
# [2] = molecular target: T2, Muscarinic acetylcholine receptor M1 (Homo sapiens) (UniProt P11229); test: Agonist activity at human muscarinic M1 receptor at 30 uM relative to acetylcholine; assay type: functional
# T2 sequence (whole entry): T1 sequence (P11229 whole entry)
SMILES,EC50 ([1]; read-out: EC50) [nM],Activity [2] [%],EC50 [1]
CCOC(=O)N1C2CCC1CC(N1CC[C@H](NC(=O)c3ccccc3C)C1)C2 (mixture of isomers),> 10000,22,–
CCS(=O)(=O)N1[C@@H]2CC[C@H]1C[C@H](NCCNC(=O)c1ccccc1)C2,–,–,Not Active
CCOC(=O)N1[C@@H]2CC[C@H]1C[C@H](NCCNC(=O)c1ccc(F)c(F)c1)C2,810,50,–
O=C(NCCN[C@@H]1C[C@H]2CC[C@@H](C1)N2C(=O)Oc1ccccc1)c1ccccc1,–,–,Not Active
CCC(=O)N1[C@@H]2CC[C@H]1C[C@H](NCCNC(=O)c1ccccc1)C2,–,–,Not Active
CS(=O)(=O)N1[C@@H]2CC[C@H]1C[C@H](NCCNC(=O)c1ccccc1)C2,–,–,Not Active
CCOC(=O)N1[C@@H]2CC[C@H]1CC(NCCNC(=O)c1ccc(C)c(F)c1)C2 (mixture of isomers),470,40,–
CCOC(=O)N1CC[C@H]2[C@H](CCCN2CCNC(=O)c2ccccc2)C1 (relative stereo),1200,13,–
CCOC(=O)N1C2CCC1CC(N1CCC[C@H](NC(=O)c3ccccc3C)C1)C2 (mixture of isomers),2100,52,–
CCOC(=O)N1[C@@H]2CC[C@H]1C[C@H](NCCNC(=O)c1cccs1)C2,1000,33,–
CN(C)C(=O)N1[C@@H]2CC[C@H]1C[C@H](NCCNC(=O)c1ccccc1)C2,–,–,Not Active
CCOC(=O)N1[C@@H]2CC[C@H]1C[C@H](NCCNC(=O)C1CCCCC1)C2,1500,34,–
CCOC(=O)N1C[C@H]2CC[C@@H](C1)[C@H]2NCCNC(=O)c1cccc(OC)c1,240,47,–
CCOC(=O)N1C[C@H]2CC[C@@H](C1)[C@H]2NCCNC(=O)N1CCCCC1,690,9,–
CCOC(=O)N1[C@@H]2CC[C@H]1C[C@H](NCCNC(=O)c1ccccc1C)C2,1100,47,–
COC(=O)N1[C@@H]2CC[C@H]1C[C@H](NCCNC(=O)c1ccccc1)C2,> 10000,21,–
CCOC(=O)N1C[C@H]2CC[C@@H](C1)[C@H]2NCCNC(=O)c1cccs1,170,54,–
CCOC(=O)N1[C@@H]2CC[C@H]1C[C@H](NCCNC(=O)c1ccncc1)C2,> 10000,6,–
CCOC(=O)N1[C@@H]2CC[C@H]1C[C@H](NCCNC(=O)c1cccc(Cl)c1)C2,440,63,–
CCOC(=O)N1CCC(N2CCC[C@@H](NC(=O)c3ccccc3C)C2)CC1,890,71,–
CCOC(=O)N1[C@@H]2CC[C@H]1C[C@H](NCCNC(=O)NC1CC1)C2,–,–,Not Active
CCOC(=O)N1[C@@H]2CC[C@H]1C[C@H](NCCNC(=O)c1ccccc1C(F)(F)F)C2,–,–,Not Active
CC(C)C(=O)N1[C@@H]2CC[C@H]1C[C@H](NCCNC(=O)c1ccccc1)C2,5400,23,–
CCOC(=O)N1C[C@H]2CC[C@@H](C1)[C@H]2NCCNC(=O)c1cc(F)cc(F)c1,200,53,–

SMILES,EC50 ([1]; read-out: EC50) [nM],Activity [2] [%],EC50 [1]
CCOC(=O)N1C2CCC1CC(N1CCC[C@H](NC(=O)c3ccccc3)C1)C2 (mixture of isomers),> 10000,12,–
CCOC(=O)N1C2CCC1CC(N1CC(NC(=O)c3ccccc3)C1)C2 (mixture of isomers),2200,34,–
CCOC(=O)N1C2CCC1CC(N1CC[C@H](NC(=O)c3ccccc3)C1)C2 (mixture of isomers),1200,39,–
CCOC(=O)N1[C@@H]2CC[C@H]1C[C@H](NCCNC(=O)N1CCCC1)C2,> 10000,11,–
O=C(NCCN[C@@H]1C[C@H]2CC[C@@H](C1)N2C(=O)OCc1ccccc1)c1ccccc1,> 10000,7,–
COC(=O)C12CCC(NCCNC(=O)c3ccccc3)(CC1)CC2,6200,18,–
CCOC(=O)N1C2CCC1CC(N1CC[C@@H](NC(=O)c3ccccc3C)C1)C2 (mixture of isomers),1200,55,–
CCOC(=O)N1CC[C@H]2[C@@H](CCCN2CCNC(=O)c2ccccc2)C1 (relative stereo),3200,13,–
CCOC(=O)N1C[C@H]2CC[C@@H](C1)[C@H]2NCCNC(=O)N1CCOCC1,> 10000,11,–
CCCC(=O)N1[C@@H]2CC[C@H]1C[C@H](NCCNC(=O)c1ccccc1)C2,–,–,Not Active
CCOC(=O)N1[C@@H]2CC[C@H]1C[C@H](NCCNC(=O)N1[C@H](C)CCC[C@@H]1C)C2,2500,39,–
CCOC(=O)N1[C@@H]2CC[C@H]1C[C@H](NCCNS(=O)(=O)c1cccc(OC)c1)C2,–,–,Not Active
CCOC(=O)N1[C@@H]2CC[C@H]1C[C@H](NCCNC(=O)c1ccccc1Cl)C2,2300,37,–
CCOC(=O)N1[C@@H]2CC[C@H]1C[C@H](NCCNC(=O)N1CCOCC1)C2,2000,44,–
CCOC(=O)N1C[C@H]2CC[C@@H](C1)[C@H]2NCCNC(=O)C1CCCCC1,1000,37,–
CCOC(=O)N1C[C@H]2CC[C@@H](C1)[C@H]2NCCNC(=O)c1ccccc1C,170,51,–
CCOC(=O)N1[C@@H]2CC[C@H]1C[C@H](NCCNC(=O)c1ccc(F)cc1)C2,830,54,–
CCOC(=O)N1[C@@H]2CC[C@H]1C[C@H](NCCNC(=O)c1cccc(OC)c1)C2,3600,33,–
CCOC(=O)N1[C@@H]2CC[C@H]1C[C@H](NCCNC(=O)c1cc(F)cc(F)c1)C2,1900,43,–
CCOC(=O)N1[C@@H]2CC[C@H]1C[C@H](NCCNC(=O)N1CCCCC1)C2,570,53,–
C=CCOC(=O)N1[C@@H]2CC[C@H]1C[C@H](NCCNC(=O)c1ccccc1)C2,2000,40,–
CCOC(=O)N1C2CCC1CC(N1CC[C@@H](NC(=O)c3ccccc3)C1)C2 (mixture of isomers),320,62,–
CCOC(=O)N1[C@@H]2CC[C@H]1C[C@H](NCCNC(=O)c1ccc[nH]1)C2,–,–,Not Active
CCOC(=O)N1C[C@@H]2C(NCCNC(=O)c3ccccc3C)[C@@H]2C1 (stereo partly specified),4100,60,–

# From ChEMBL document CHEMBL2021911 (Bioorg Med Chem Lett, 2012)
